The results in this text go back to PubChem BioAssay (NCI).

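These data come from cells grown in 96-well plates and exposed to compound for 48 hours at five concentrations. Here, GI50 denotes the concentration required for 50% inhibition of growth. TGI denotes the concentration required for complete inhibition of growth.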 Bounds are passed on as bounds.

What all share (assay): DTP human tumour cell line panel, 48 h
Assay [1] concerns U251 CNS.
The test system of assay [2] is MALME-3M melanoma.
Assay [3] concerns A498 renal.
Assay [4] relates to UO-31 renal.
Assay [5] concerns SNB-19 CNS.
Assay [6] concerns TK-10 renal.
Assay [7] relates to HCT-15 colon.
Assay [8] has as its system COLO 205 colon.
Assay [9] deals with MDA-MB-435.
The test system of assay [10] is OVCAR-5 ovarian.

As to `Cn1c(=O)c(Oc2ccccc2F)cc2cnc(NC3CCOCC3)nc21`, the GI50 in assay [1] was > 25 µM; in assay [2], > 25 µM; in assay [3], > 14.7 µM; in [4] it was > 14.4 µM; in assay [5] it was > 25 µM; in assay [6] it was > 25 µM. For the same molecule, the GI50 in assay [7], in assay [8], in assay [9] and in [10] was > 25 µM in each case. Also, the concentration for total growth inhibition (TGI) in assay [1], in assay [2], in assay [3], in assay [4], in assay [5] and in [6] was > 25 µM throughout. For the same molecule, the TGI in assay [7], in [8], in [9] and in assay [10] was > 25 µM in each case.

For `NC1CCN(c2nc(Nc3cccc(C(F)(F)F)c3)c3c(=O)[nH]ccc3n2)CC1`, the GI50 in assay [1] was 1.73 µM; in assay [2] it was 1.88 µM; in assay [3], 1.64 µM; in assay [4], 1.19 µM; in assay [5], 2 µM; in assay [6] it was 1.3 µM. In addition, the GI50 in assay [7] was 0.584 µM; in [8], 1.4 µM; in [9], 1.09 µM; in assay [10], 1.68 µM. For the same molecule, the TGI in [1] worked out at 3.55 µM; in assay [2], 3.83 µM; in assay [3], 3.14 µM; in assay [4], 2.62 µM; in assay [5], 3.59 µM; in [6] it was 2.72 µM. The TGI was 2.26 µM in assay [7], 2.82 µM in assay [8], 2.42 µM in assay [9] and 3.44 µM in assay [10].

Consider `CCN1C(=S)N(CC)C2C1NC(=S)N2/N=C/C=C/c1ccccc1` (centres undefined), for which the GI50 in [1] was 2.31 µM; in assay [2], 2.09 µM; in [3] it was 0.641 µM; in [4], 3.55 µM; in assay [5] it was 2.8 µM; in assay [6], 7.65 µM. The GI50 in assay [7] is 0.77 µM; in assay [8], 1.11 µM; in assay [9], 0.272 µM; in [10], 3.92 µM. Further, the concentration for total growth inhibition (TGI) worked out at 13 µM in assay [1]; 17.8 µM in assay [2]; 4.67 µM in assay [3]; 18.3 µM in assay [4]; 20.2 µM in assay [5]; 23.1 µM in assay [6]. Moreover, the TGI turned out to be 14.3 µM in assay [7], 4.4 µM in [8], 0.856 µM in assay [9] and 16.9 µM in assay [10].

Regarding `CC1=C[C@H]2c3c(c(O)c(O)c4oc5ccccc5c(=O)c34)[C@H](c3cc(O)c(O)c4oc5ccccc5c(=O)c34)[C@H]2C(C)(C)C1`, the GI50 in assay [1] is 0.728 µM; in [2], 2.3 µM; in assay [3], 0.519 µM; in assay [4], 0.73 µM; in assay [5], 1.17 µM; in assay [6] it was 2.19 µM. In addition, the GI50 was 0.909 µM in [7], 2.8 µM in [8], 0.839 µM in assay [9] and 3.18 µM in assay [10]. The total growth inhibition concentration (TGI) is 14 µM in [1]; 11.1 µM in assay [2]; 3.38 µM in [3]; 2.18 µM in assay [4]; 14.1 µM in [5]; 15.3 µM in assay [6]. Further, the TGI came to 12.9 µM in assay [7], 9.73 µM in [8], 4.42 µM in assay [9] and 14.7 µM in [10].

With `Cn1ncc2c(N)nc(N3CCCCC3)nc21`, the GI50 in [1] is 30.7 µM; in assay [2], 20.8 µM; in [3] it was 18.5 µM; in assay [4], 43 µM; in [5], 22.5 µM; in assay [6] it was 22.9 µM. The GI50 in assay [7] is 26.2 µM; in assay [8], 19.7 µM; in assay [9] it was 24.1 µM; in assay [10] it was 38.5 µM. For the same molecule, the concentration for total growth inhibition (TGI) in assay [1] is > 100 µM; in [2], 67.9 µM; in [3], 42.9 µM; in assay [4], > 100 µM; in assay [5], > 100 µM; in assay [6] it was 77.8 µM. The TGI is 82.5 µM in assay [7], 51.4 µM in assay [8], 81.4 µM in [9] and > 100 µM in assay [10].

In the case of `O=[N+]([O-])c1ccc(N/N=C/c2c(O)ccc3ccccc23)nc1`, the GI50 is 5.01 µM in assay [1]; 27.8 µM in [2]; > 100 µM in assay [3]; 1.25 µM in assay [4]; > 100 µM in assay [5]; 55.9 µM in assay [6]. For the same molecule, the GI50 in assay [7] is 0.655 µM; in assay [8], 30.5 µM; in assay [9] it was 55.2 µM; in [10], > 100 µM. For the same molecule, the concentration for total growth inhibition (TGI) in assay [1], in [2], in [3], in [4], in [5] and in assay [6] was > 100 µM throughout. The concentration for total growth inhibition (TGI) in assay [7], in assay [8], in assay [9] and in assay [10] was > 100 µM each time.

`OCC1OC(n2ccc3c(NO)ncnc32)C(O)C1O` (centres undefined): the GI50 in assay [1] was 0.168 µM; in assay [2], 0.117 µM; in [3] it was 0.152 µM; in assay [4] it was 0.0536 µM; in assay [5], 0.263 µM; in [6], 0.152 µM. Also, the GI50 is 0.118 µM in [7], 0.114 µM in [8], 0.198 µM in [9] and 0.247 µM in [10]. Besides, the concentration for total growth inhibition (TGI) in [1] was > 20.2 µM; in assay [2], 0.451 µM; in [3], 0.794 µM; in assay [4], 0.502 µM; in assay [6], 1.16 µM; in [7], 1.52 µM. For the same molecule, the results for the TGI in assay [8], in [9] and in assay [10] were 0.617 µM, 0.632 µM and 6.33 µM, respectively.
